According to US20090240049A1, “Purification of air sensitive steroids” (priority 2008, published 2009):
Each block holds one molecule with its values, some of them ahead of it.

Test: Stability of Budesonide on storage, 21-aldehyde and Budesonide content by HPLC
Format: physicochemical
Details: for Budenoside HPLC Area % / 21 Aldehyde HPLC Area %: double plastic containers
Protocol: The amount of air-sensitive steroid and/or its 21 aldehyde impurity were determined using HPLC. Common HPLC methods for these steroids and their 21-aldehyde impurities may be found in various monographs see for example for Budesonide and its 21-aldehyde impurity a HPLC method is reported in USP31-NF26, page 1565 (detection limit 0.02%), for Fluocinolone acetonide a HPLC method in European Pharmacopoeia (EP) 6.0, page 1915, and for Methylprednisolone a HPLC method in European Pharmacopoeia (EP) 6.0, page 2393.
Budenoside from three production lots prepared in stainless steel reactors was compared to a lot of Budenoside produced in such a reactor and purified with cysteine according to example 5. All samples were stored in double plastic containers. The samples that were not treated with cysteine were kept at a temperature of 25±2° C. and relative humidity of 60%. The sample treated with cysteine was stored at a temperature that varied from about 0° C. to about 40° C. with no humidity control. As is shown in the table below the amount of the 21-aldehyde impurity in the Budenoside purified according to example 5 is less than 0.07% even after 6 years of storage. The aldehyde content of all samples was measured by HPLC.

[1] = production lot 1 of 3 (c1-c2), not treated with cysteine, 25±2° C., 60% relative humidity, 2 years
[2] = production lot 1 of 3 (c1-c2), not treated with cysteine, 25±2° C., 60% relative humidity, 5 years
[3] = production lot 2 of 3 (c3-c4), not treated with cysteine, 25±2° C., 60% relative humidity, 2 years
[4] = production lot 2 of 3 (c3-c4), not treated with cysteine, 25±2° C., 60% relative humidity, 5 years
[5] = production lot 3 of 3 (c5-c6), not treated with cysteine, 25±2° C., 60% relative humidity, 2 years
[6] = production lot 3 of 3 (c5-c6), not treated with cysteine, 25±2° C., 60% relative humidity, 5 years
[7] = lot purified with cysteine, stored at about 0° C. to about 40° C., no humidity control, 6 years

Budenoside HPLC Area % (production lot 1 of 3 (c1-c2), not treated with cysteine, 25±2° C., 60% relative humidity, 0 years): 99.0 HPLC Area % | Budenoside HPLC Area % (production lot 1 of 3 (c1-c2), not treated with cysteine, 25±2° C., 60% relative humidity, 1 year): 98.8 HPLC Area % | 21 Aldehyde HPLC Area % [1]: 0.1 HPLC Area % | Budenoside HPLC Area % [1]: 98.7 HPLC Area % | 21 Aldehyde HPLC Area % [2]: 0.2 HPLC Area % | Budenoside HPLC Area % [2]: 98.4 HPLC Area % | Budenoside HPLC Area % (production lot 2 of 3 (c3-c4), not treated with cysteine, 25±2° C., 60% relative humidity, 0 years): 99.4 HPLC Area % | Budenoside HPLC Area % (production lot 2 of 3 (c3-c4), not treated with cysteine, 25±2° C., 60% relative humidity, 1 year): 98.9 HPLC Area % | 21 Aldehyde HPLC Area % [3]: 0.6 HPLC Area % | Budenoside HPLC Area % [3]: 98.5 HPLC Area % | 21 Aldehyde HPLC Area % [4]: 0.9 HPLC Area % | Budenoside HPLC Area % [4]: 97.8 HPLC Area % | Budenoside HPLC Area % (production lot 3 of 3 (c5-c6), not treated with cysteine, 25±2° C., 60% relative humidity, 0 years): 99.2 HPLC Area % | Budenoside HPLC Area % (production lot 3 of 3 (c5-c6), not treated with cysteine, 25±2° C., 60% relative humidity, 1 year): 99.0 HPLC Area % | 21 Aldehyde HPLC Area % [5]: <0.1 HPLC Area % | Budenoside HPLC Area % [5]: 99.1 HPLC Area % | 21 Aldehyde HPLC Area % [6]: <0.2 HPLC Area % | Budenoside HPLC Area % [6]: 98.2 HPLC Area %
Compound: CCCC1O[C@@H]2C[C@H]3[C@@H]4CCC5=CC(=O)C=C[C@]5(C)[C@H]4[C@@H](O)C[C@]3(C)[C@]2(C(=O)CO)O1 (stereo partly shown) [Budenoside, Budesonide]

amount of the 21-aldehyde impurity (after 6 years of storage at about 0° C. to about 40° C., no humidity control): less than 0.07% | Budenoside HPLC Area % (lot purified with cysteine, stored at about 0° C. to about 40° C., no humidity control, 0 years): 99.76 HPLC Area % | 21 Aldehyde HPLC Area % [7]: 0.02 HPLC Area % | Budenoside HPLC Area % [7]: 99.61 HPLC Area %
Compound: CCCC1O[C@@H]2C[C@H]3[C@@H]4CCC5=CC(=O)C=C[C@]5(C)[C@H]4[C@@H](O)C[C@]3(C)[C@]2(C(=O)CO)O1 (stereo partly shown) [Budesonide]
